Earlier results as cited in patent US11707436B2, “Methods of treating inflammatory disorders and global inflammation with compositions comprising phospholipid nanoparticle encapsulations of NSAIDS” (NanoSphere Health Sciences, LLC, priority 2014, dated 2023).
Values after ≈ are worked out from the molar mass of the structure shown.

Experiments:
[1] = for Solubility of NSAIDs at 25 C: source drugbank.ca
[2] = clinical studies
NF-KappaB [3] = conditions: highly variable efficacy
NF-KappaB [4] = conditions: for inhibition of NF-kappaB activity: concentrations comparable to those used in therapy; for inhibition of activation of the NF-KappaB pathway: concentrations measured in serum of treated patients
[5] = after removal of lower third molars
[6] = renal colic

Compound: COc1ccc2c(c1)c(CC(=O)O)c(C)n2C(=O)c1ccc(Cl)cc1 [Indomethacin]
- Solubility of NSAIDs at 25 C [1]: 937 µg/mL
- concentrations in CSF [2]: minimal concentrations

Compound: COc1cc(/C=C/C(=O)CC(=O)/C=C/c2ccc(O)c(OC)c2)ccc1O [curcumin]
- inhibition of TNF-induced NF-KappaB activation (NF-KappaB [3]): inhibited

Compound: CC(C(=O)O)c1ccc(N2CC=CC2)c(Cl)c1 (centres unmarked) [piroprofen]
- concentrations in CSF [2]: minimal concentrations

Compound: CC(C)Cc1ccc(C(C)C(=O)O)cc1 (centres unmarked) [Ibuprofen]
- inhibition of NF-kappaB activity (NF-KappaB [4]): effectively inhibit
- inhibition of TNF-induced NF-KappaB activation (NF-KappaB [3]): inhibited
- Solubility of NSAIDs at 25 C [1]: 21000 µg/mL
- solubility water at 25° C [1]: 21000 µg/mL (≈ 102 mM)

Compound: O=C(O)Cc1ccccc1Nc1c(Cl)cccc1Cl [Diclofenac]
- Solubility of NSAIDs at 25 C [1]: 50000 µg/mL

Compound: CC1=C(CC(=O)O)c2cc(F)ccc2/C1=C\c1ccc([S+](C)[O-])cc1 (centres unmarked) [sulindac]
- inhibition of TNF-induced NF-KappaB activation (NF-KappaB [3]): inhibited

Compound: CC(C(=O)O)c1cccc(C(=O)c2ccccc2)c1 (centres unmarked) [Ketoprofen]
- concentrations in CSF [2]: minimal concentrations

Compound: C=C(C)[C@@H]1CCC(C)=C[C@H]1c1c(O)cc(CCCCC)cc1O [Cannabidiol]
- NF-Kappa B activation, pro-inflammatory cytokines and mediators (TNF-alpha, iNOS) (NF-Kappa B): attenuate
- solubility in water ([1]; words only): insolubility in water

Compound: COc1ccc2cc([C@H](C)C(=O)O)ccc2c1 [Naproxen]
- inhibition of NF-kappaB activity (NF-KappaB [4]): effectively inhibit
- inhibition of TNF-induced NF-KappaB activation (NF-KappaB [3]): inhibited

Compound: CN1C(C(=O)Nc2ccccn2)=C(O)c2ccccc2S1(=O)=O [piroxicam]
- pain scores, oral versus sublingual route [5]: no significant differences
- efficacy of sublingual versus IM injection [6]: as effective as the IM injection

Compound: Oc1ccc(C=Cc2cc(O)cc(O)c2)cc1 [resveratrol]
- inhibition of TNF-induced NF-KappaB activation (NF-KappaB [3]): inhibited

Compound: CC/C(=C(\c1ccccc1)c1ccc(OCCN(C)C)cc1)c1ccccc1 [tamoxifen]
- inhibition of TNF-induced NF-KappaB activation (NF-KappaB [3]): inhibited

Compound: CC(=O)Oc1ccccc1C(=O)O [Acetylsalicylic acid]
- inhibition of NF-kappaB activity (NF-KappaB [4]): effectively inhibit
- inhibition of activation of the NF-KappaB pathway (NF-KappaB [4]): inhibit activation
- inhibition of TNF-induced NF-KappaB activation (NF-KappaB [3]): inhibited
- Solubility of NSAIDs at 25 C [1]: 3300 µg/mL

Compound: O=C(O)c1ccccc1O [Salicylic acid]
- Solubility of NSAIDs at 25 C [1]: 3000 µg/mL
- solubility water at 25° C [1]: 3000 µg/mL (≈ 21.7 mM)

Compound: O=C([O-])c1ccccc1O.[Na+] [salicylate, sodium salicylate]
- inhibition of activation of the NF-KappaB pathway (NF-KappaB [4]): inhibit activation
